Data: ChEMBL document CHEMBL1201862, “PubChem BioAssay data set” (2004)
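Growth conditions: 96-well plates. Treatment: test compound, 48 hours, 5 concentrations. Analysis: linear interpolation between bracketing concentrations; unreached endpoints set to highest concentration. GI50: concentration for 50% inhibition of growth.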 The source made the active and inactive calls. Rule as the data show it: active = GI50 up to about 1.1 µM and inactive = higher.

Columns and labels:
Assay in all cases: growth of human tumour cells (NCI), 48 h
A549 = test system: A549
HCC 2998 = test system: HCC 2998
HCT-116 = test system: HCT-116
HL-60 = test system: HL-60
HT-29 = test system: HT-29
K562 = test system: K562
MCF7 = test system: MCF7
MDA-MB-435 = test system: MDA-MB-435
NCI-H522 = test system: NCI-H522
OVCAR-5 = test system: OVCAR-5
RPMI-8226 = test system: RPMI-8226
SF-295 = test system: SF-295
SK-MEL-28 = test system: SK-MEL-28
SR = test system: SR
SW-620 = test system: SW-620
TK-10 = test system: TK-10
UACC-62 = test system: UACC-62

Row | Structure (SMILES) | GI50 (A549) | GI50 (HCC 2998) | GI50 (HCT-116) | GI50 (HL-60) | GI50 (HT-29) | GI50 (K562) | GI50 (MCF7) | GI50 (MDA-MB-435) | GI50 (NCI-H522) | GI50 (OVCAR-5) | GI50 (RPMI-8226) | GI50 (SF-295) | GI50 (SK-MEL-28) | GI50 (SR) | GI50 (SW-620) | GI50 (TK-10) | GI50 (UACC-62)
1 | CCOc1ccc(/N=N/c2ccc(-c3ccc(/N=N/c4c(O)ccc5cc(S(=O)(=O)O)cc(S(=O)(=O)O)c45)cc3)cc2)cc1 | > 100 µM (inactive) | > 100 µM (inactive) | > 100 µM (inactive) | > 100 µM (inactive) | > 100 µM (inactive) | > 100 µM (inactive) | > 100 µM (inactive) | > 100 µM (inactive) | 63.2 µM (inactive) | > 100 µM (inactive) | > 100 µM (inactive) | > 100 µM (inactive) | > 100 µM (inactive) | 66.2 µM (inactive) | > 100 µM (inactive) | > 100 µM (inactive) | > 100 µM (inactive)
2 | N#CN1CCC=C(c2cc3ccccc3[nH]2)C1 | 394 µM (inactive) | 185 µM (inactive) | 285 µM (inactive) | 164 µM (inactive) | > 448 µM (inactive) | 421 µM (inactive) |  |  | 109 µM (inactive) | > 448 µM (inactive) | 170 µM (inactive) | 313 µM (inactive) | 382 µM (inactive) | 159 µM (inactive) | 414 µM (inactive) | > 448 µM (inactive) | 201 µM (inactive)
3 | O=C(Cn1cc(-c2ccccc2)nn1)NC1CCCC1 | > 100 µM (inactive) | > 100 µM (inactive) | > 100 µM (inactive) | > 100 µM (inactive) | > 100 µM (inactive) | > 100 µM (inactive) | > 100 µM (inactive) | > 100 µM (inactive) | > 100 µM (inactive) | > 100 µM (inactive) | > 100 µM (inactive) | > 100 µM (inactive) | > 100 µM (inactive) | > 100 µM (inactive) | > 100 µM (inactive) | > 100 µM (inactive) | 
4 | CCN(C(=N)C#N)c1ccccc1 | > 100 µM (inactive) | > 100 µM (inactive) | > 60.4 µM (inactive) | > 46.9 µM (inactive) | > 89.7 µM (inactive) | > 75.5 µM (inactive) |  |  | > 100 µM (inactive) | > 100 µM (inactive) | > 100 µM (inactive) | > 100 µM (inactive) | > 100 µM (inactive) | > 100 µM (inactive) | 20.5 µM (inactive) | > 100 µM (inactive) | > 72.3 µM (inactive)
5 | CNS(=O)(=O)NNS(=O)(=O)c1ccc(C)cc1 | > 100 µM (inactive) | > 100 µM (inactive) | > 100 µM (inactive) | > 100 µM (inactive) | > 100 µM (inactive) | > 100 µM (inactive) |  |  | > 100 µM (inactive) | > 100 µM (inactive) | > 100 µM (inactive) | > 100 µM (inactive) | > 100 µM (inactive) | > 100 µM (inactive) | > 100 µM (inactive) | > 100 µM (inactive) | > 100 µM (inactive)
6 | N#C[BH2-][n+]1ccc(C(=O)NNC(c2ccccc2)C(F)(F)F)cc1 (centres undefined) | > 100 µM (inactive) | > 100 µM (inactive) | > 100 µM (inactive) | > 100 µM (inactive) | > 100 µM (inactive) | > 100 µM (inactive) | > 100 µM (inactive) | > 100 µM (inactive) | 68.9 µM (inactive) | > 100 µM (inactive) | > 100 µM (inactive) | > 100 µM (inactive) | > 100 µM (inactive) | > 100 µM (inactive) | > 100 µM (inactive) | > 100 µM (inactive) | 
7 | Cc1cc(C2CCCCC2)n(O)c(=O)c1 [CICLOPIROX OLAMINE] | 3.91 µM (inactive) | 4.97 µM (inactive) | 3.7 µM (inactive) | 0.178 µM (active) | 9.08 µM (inactive) | 3.41 µM (inactive) |  |  | 2.96 µM (inactive) | 8.28 µM (inactive) | 3.56 µM (inactive) | 3.81 µM (inactive) | 12.6 µM (inactive) | 2.95 µM (inactive) | 5.85 µM (inactive) | 37.1 µM (inactive) | 3.03 µM (inactive)
